These results are taken from patent US12103932B2, “Process for preparing substituted imidazo[4,5-c]pyrazoles” (Imam Abdulrahman Bin Faisal University, priority 2021, dated 2024).

Holding throughout (experiment): Paper disk diffusion antibacterial test
Common to all, as to assay type: cell-based
Background: A growth-free zone around the sample is the usual read-out of agar diffusion tests.

In experiment [1] the test system is Staphylococcus aureus ATCC 29213. As to the method:
(§1) In Vitro antimicrobial activity was evaluated using both gram-positive and gram-negative bacterial strains. The results reproduced here are exemplary and may include other microorganisms such as Escherichia coli, Listeria monocytogenes, Lactobacillus, yeast, vancomycin-resistant Enterococcus, molds, and spores. The in vitro antibacterial activity was evaluated for. gram-positive bacteria (Staphylococcus aureus ATCC 29213 and Staphylococcus epidermidis ATCC 12228) and gram-negative bacteria (Pseudomonas aeruginosa ATCC 27853) obtained from King Fahd Hospital, AlKhobar, Saudi Arabia.
(§2) Antimicrobial activity of three imidazopyrazole derivatives (1), (2) and (3) were evaluated qualitatively by paper disk diffusion method [CLSI.; Approved Standard, 11th ed.; CLSI document M02-A11; Clinical and Laboratory Standards Institute: Wayne, PA, USA, 2012, incorporated herein by reference in its entirety]. The three chemical materials i.e. compounds (1), (2) and (3) were prepared in different concentrations as follows: 0.01, 0.02, 0.03, 0.05, and 0.1 g/mL in dimethyl sulfoxide (DMSO) and tested directly. Paper discs measured 6 mm in diameter were soaked separately with 100 μL of the chemical materials and were left to dry. Bacterial inoculums were prepared from previous cultures in Muller-Hinton broth. The bacterial cell suspension turbidity was adjusted to a 0.5 McFarland standard, which represented approximately 1-2×10^8 colony-forming units (CFU)/mL using a Biomerieux DensiCHEK plus meter device (Missouri, MO, USA). Bacterial inoculums at 0.5 mL were transferred to petri plates under sterilized conditions. Melted Muller-Hinton agar at approximately 50° C. was poured over the inoculums, and to ensure even distribution of the inoculums, the plates were rotated neatly, then cultures were left to harden for 5 min. Then, previously prepared paper discs, saturated with chemicals, were transferred, using sterilized forceps, to the surface of petri plates that contained the bacterial cultures. Gentamicin (CN10 μg), aminoglycosides antibiotic was used as the positive control and DMSO was used as the negative control. The petri plates were placed in the refrigerator (General Electric, Medford, MA, USA) to allow diffusion of the chemicals into the agar for an hour. Then the petri plates were incubated at 37° C. for 24 h. After the incubation period ended, the area of inhibition around the discs was measured with a ruler. Three replicants were made to ensure the accuracy of the experiment.

Experiment [2] relates to Pseudomonas aeruginosa ATCC 27853. As to the method: as §1, §2
For experiment [3], the system named is Staphylococcus epidermidis ATCC 12228. As to the method: as §1, §2
[4] abbreviates: 0.05 g/mL in DMSO, 6 mm paper disc, 37° C. 24 h.
Setting [5] is: 0.1 g/mL in DMSO, 6 mm paper disc, 37° C. 24 h.

Consider Gentamicin [reference compound], for which the “zone of inhibition (mm) means ± SD” value in experiment [1] (positive control, CN10 μg disc) is 18.7 ± 1.5 mm; in experiment [2] (positive control, CN10 μg disc) it was 20.7 ± 1.2 mm; in experiment [3] (positive control, CN10 μg disc) it was 21.3 ± 1.2 mm.

Turning to `CCOC(=O)CSC1=NC2C(C)=NN(c3ccccc3)C2=N1` (stereo not shown) [(3), Ethyl 2-((3-Methyl-1-Phenyl-1,3adihydroimidazo[4,5-c] Pyrazol-5-yl)thio) Acetate], the “zone of inhibition (mm) means ± SD” value in experiment [1] (setting [4]) came to 7.3 ± 0.6 mm; in experiment [1] (setting [5]), 8.7 ± 0.6 mm; in experiment [2] (setting [4]) it was 7.3 ± 0.6 mm; in experiment [2] (setting [5]), 7.3 ± 0.6 mm; in experiment [3] (setting [4]), 7.3 ± 0.6 mm; in experiment [3] (setting [5]) it was 8.7 ± 0.6 mm.

As to `CC1=NN(c2ccccc2)C2=NC(=S)NC12` (stereo not shown) [(1), 3-Methyl-1-Phenyl-3a,4-Dihydro Imidazo(4,5-c) Pyrazole-5(1H)-Thione], the “zone of inhibition (mm) means ± SD” value in experiment [1] (setting [4]) was 7.7 ± 0.6 mm; in experiment [1] (setting [5]), 9.0 ± 1.0 mm; in experiment [2] (setting [4]), 10.0 ± 1.0 mm; in experiment [2] (setting [5]), 11.0 ± 1.0 mm; in experiment [3] (setting [4]) it was 8.3 ± 0.6 mm; in experiment [3] (setting [5]), 8.3 ± 0. mm.

As for `CC1=NN(c2ccccc2)C2=NC(NC(N)=S)=NC12` (stereo not shown) [(2), 1-(3-Methyl-1-Phenyl-1,3a-Dihydroimidazo[4,5-c] Pyrazol-5-yl) Thiourea], the “zone of inhibition (mm) means ± SD” value in experiment [1] (setting [4]) was 18.0 ± 0.0 mm; in experiment [1] (setting [5]), 18.7 ± 0.6 mm; in experiment [2] (setting [4]) it was 7.7 ± 0.6 mm; in experiment [2] (setting [5]), 8.3 ± 0.6 mm; in experiment [3] (setting [4]), 8.3 ± 0.6 mm; in experiment [3] (setting [5]) it was 9.3 ± 0.6 mm. In addition, the “area of inhibition zone compared with positive control gentamicin” value in experiment [1] (at the concentrations 0.05 g/mL and 0.01 g/mL, gentamicin CN10 μg) was “equal to gentamicin”.
